Data from US20160237059A1, “HETEROCYCLIC SUBSTITUTED TRIFLUOROMETHYL PYRIMIDINONES AND THEIR USE” (BAYER PHARMA AKTIENGESELLSCHAFT, priority 2013, published 2016).

Assays:
[1] = target: T1, human CCR2 (Homo sapiens, UniProt P41597); assay: Functional Ca2+ release test (B-1); type: cell-based; details: Chem-1 cell line transfected with human CCR2; 50% inhibition of the MCP-1 effect, MCP-1 at EC50 (about 5 nM); in some cases means of several determinations
T1 construct: host or cells: Chem-1 cell line
T1 sequence (P41597 1-360 isoform P41597-2): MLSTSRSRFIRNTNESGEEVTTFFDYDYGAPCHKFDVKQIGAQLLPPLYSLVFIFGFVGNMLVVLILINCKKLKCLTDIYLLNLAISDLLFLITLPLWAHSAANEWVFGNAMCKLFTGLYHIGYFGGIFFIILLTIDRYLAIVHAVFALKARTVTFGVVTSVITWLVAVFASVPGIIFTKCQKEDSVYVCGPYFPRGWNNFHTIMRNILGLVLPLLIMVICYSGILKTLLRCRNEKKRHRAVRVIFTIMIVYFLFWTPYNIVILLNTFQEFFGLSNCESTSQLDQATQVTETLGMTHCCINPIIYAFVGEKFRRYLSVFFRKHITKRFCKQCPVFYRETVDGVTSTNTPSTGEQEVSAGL
How it was run: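 Chem-1 cells expressing human CCR2, loaded with Fluo-4 for 60 min at 37° C, were preincubated 10 min with compound (10-point, 1:3.16 dilutions), then stimulated with MCP-1 at its predetermined EC50 (about 5 nM). Ca2+ release was monitored for 120 s. IC50 came from a 4-parameter Hill fit.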

[2] = target: T2, murine CCR2 (Mus musculus, UniProt P51683); assay: Functional β-arrestin recruiting test with murine MCP-1 (B-2b); type: cell-based; details: U2OS β-arrestin cell line transfected with murine CCR2; agonist murine MCP-1; in some cases means of several determinations
T2 construct: host or cells: U2OS β-arrestin cell line
T2 sequence (P51683 whole entry): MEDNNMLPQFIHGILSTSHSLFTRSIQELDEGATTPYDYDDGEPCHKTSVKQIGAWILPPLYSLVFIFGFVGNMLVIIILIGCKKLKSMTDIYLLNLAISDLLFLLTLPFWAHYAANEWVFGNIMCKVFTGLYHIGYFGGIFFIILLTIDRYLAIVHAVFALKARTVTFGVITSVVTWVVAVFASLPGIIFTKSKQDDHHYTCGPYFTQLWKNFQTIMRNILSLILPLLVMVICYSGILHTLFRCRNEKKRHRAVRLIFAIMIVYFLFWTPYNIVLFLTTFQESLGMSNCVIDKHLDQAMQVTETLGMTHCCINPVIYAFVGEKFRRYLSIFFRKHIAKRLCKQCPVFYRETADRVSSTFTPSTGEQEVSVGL
How it was run: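 In a PathHunter β-galactosidase complementation assay, U2OS cells expressing murine CCR2 were preincubated 10 min with compound (10-point, 1:3.16 dilutions), then challenged with murine MCP-1 at its predetermined EC50 for 90 min at 37 °C. Luminescence was read after 60 min, and IC50 was fitted with a 4-parameter Hill function.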

SMILES	IC50 [1] [nM]	IC50 [2] [nM]
O=c1[nH]c(-c2cccc[n+]2[O-])nc(C(F)(F)F)c1Oc1ccc(Cl)c(Cl)c1 [Example 161, 5-(3,4-dichlorophenoxy)-2-(1-oxidopyridin-2-yl)-6-(trifluoromethyl)pyrimidin-4(3H)-one]	2.3	432
O=c1[nH]c(-n2cncn2)nc(C(F)(F)F)c1Oc1ccc(Cl)c(Cl)c1 [Example 255, 5-(3,4-Dichlorophenoxy)-2-(1H-1,2,4-triazol-1-yl)-6-(trifluoromethyl)pyrimidin-4(3H)-one]	38	1340
CC(C)(C)Oc1cccc(-c2nc(C(F)(F)F)c(Oc3ccc(Cl)c(Cl)c3)c(=O)[nH]2)n1 [Example 146, 2-(6-tent-butoxypyridin-2-yl)-5-(3,4-dichlorophenoxy)-6-(trifluoromethyl)pyrimidin-4(3H)-one]	404	3500
O=c1[nH]c(-c2cnccn2)nc(C(F)(F)F)c1Oc1ccc(Cl)c(Cl)c1 [Example 127, 5-(3,4-dichlorophenoxy)-2-(pyrazin-2-yl)-6-(trifluoromethyl)pyrimidin-4(3H)-one]	2.1	372
Nc1ccc(-c2nc(C(F)(F)F)c(Oc3ccc(Cl)c(Cl)c3)c(=O)[nH]2)nc1 [Example 123, 2-(5-aminopyridin-2-yl)-5-(3,4-dichlorophenoxy)-6-(trifluoromethyl)pyrimidin-4(3H)-one]	0.6	28
CNc1ccnc(-c2nc(C(F)(F)F)c(Oc3ccc(Cl)c(Cl)c3)c(=O)[nH]2)c1 [Example 168, 5-(3,4-dichlorophenoxy)-2-[4-(methylamino)pyridin-2-yl]-6-(trifluoromethyl)pyrimidin-4(3H)-one]	25	1210
Nc1ncc(-c2nc(C(F)(F)F)c(Oc3ccc(Cl)c(Cl)c3)c(=O)[nH]2)cn1 [Example 154, 2′-amino-5-(3,4-dichlorophenoxy)-6-(trifluoromethyl)-2,5′-bipyrimidin-4(3H)-one]	37	1930
COc1cnn(-c2nc(C(F)(F)F)c(Oc3ccc(Cl)c(Cl)c3)c(=O)[nH]2)c1 [Example 249]	0.9	254
Cn1nc(-c2nc(C(F)(F)F)c(Oc3ccc(Cl)c(Cl)c3)c(=O)[nH]2)c2ccccc21 [Example 136, 5-(3,4-dichlorophenoxy)-2-(1-methyl-1H-indazol-3-yl)-6-(trifluoromethyl)pyrimidin-4(3H)-one]	39	1220
CC(=O)Nc1ccc(-c2nc(C(F)(F)F)c(Oc3ccc(Cl)c(Cl)c3)c(=O)[nH]2)nc1 [Example 202]	0.9	212
CN(C)c1ccc(-c2nc(C(F)(F)F)c(Oc3ccc(Cl)c(Cl)c3)c(=O)[nH]2)nn1 [Example 200]	1.2	359
Cn1ccc(-c2nc(C(F)(F)F)c(Oc3ccc(Cl)c(Cl)c3)c(=O)[nH]2)n1 [Example 225]	0.3	150
CCCc1cc(-c2nc(C(F)(F)F)c(Oc3ccc(Cl)c(Cl)c3)c(=O)[nH]2)no1 [Example 215]	7.9	1150

The next lines start with the values.

IC50 [1] [nM]	IC50 [2] [nM]	SMILES
0.3	8.4	O=c1[nH]c(-c2ncccc2Br)nc(C(F)(F)F)c1Oc1ccc(Cl)c(C(F)(F)F)c1 [Example 182, 2-(3-bromopyridin-2-yl)-5-[4-chloro-3-(trifluoromethyl)phenoxy]-6-(trifluoromethyl)pyrimidin-4(3H)-one]
2.6	89	O=c1[nH]c(-c2nscc2O)nc(C(F)(F)F)c1Oc1ccc(Cl)c(C(F)(F)F)c1 [Example 239]
8.7	983	Cc1ccc(-c2nc(C(F)(F)F)c(Oc3ccc(Cl)c(C(F)(F)F)c3)c(=O)[nH]2)nc1C [Example 158, 5-[4-chloro-3-(trifluoromethyl)phenoxy]-2-(5,6-dimethylpyridin-2-yl)-6-(trifluoromethyl)pyrimidin-4(3H)-one]
1	80	COc1csnc1-c1nc(C(F)(F)F)c(Oc2ccc(Cl)c(Cl)c2)c(=O)[nH]1 [Example 237]
1.4	412	COc1cccnc1-c1nc(C(F)(F)F)c(Oc2ccc(Cl)c(OC(F)(F)F)c2)c(=O)[nH]1 [Example 138]
0.5	107	CCn1ccc(-c2nc(C(F)(F)F)c(Oc3ccc(Cl)c(C(F)(F)F)c3)c(=O)[nH]2)n1 [Example 240]
1.1	157	O=c1[nH]c(-c2ccc(Cl)cn2)nc(C(F)(F)F)c1Oc1ccc(Cl)c(C(F)(F)F)c1 [Example 195, 2-(5-chloropyridin-2-yl)-5-[4-chloro-3-(trifluoromethyl)phenoxy]-6-(trifluoromethyl)pyrimidin-4(3H)-one]
121	373	COc1ccnc(-c2nc(C(F)(F)F)c(Oc3ccc(Cl)c(Cl)c3)c(=O)[nH]2)c1 [Example 147, 5-(3,4-dichlorophenoxy)-2-(4-methoxypyridin-2-yl)-6-(trifluoromethyl)pyrimidin-4(3H)-one]
0.8	75	O=c1[nH]c(-c2n[nH]c3ccccc23)nc(C(F)(F)F)c1Oc1ccc(Cl)c(C(F)(F)F)c1 [Example 140, 5-[4-chloro-3-(trifluoromethyl)phenoxy]-2-(1H-indazol-3-yl)-6-(trifluoromethyl)pyrimidin-4(3H)-one]
1.8	153	Cc1cnc(-c2nc(C(F)(F)F)c(Oc3ccc(Cl)c(C(F)(F)F)c3)c(=O)[nH]2)[nH]1 [Example 242]
1.3	83	Cc1cc(Oc2c(C(F)(F)F)nc(-c3ncccc3Cl)[nH]c2=O)ccc1Cl [Example 197, 5-(4-chloro-3-methylphenoxy)-2-(3-chloropyridin-2-yl)-6-(trifluoromethyl)pyrimidin-4(3H)-one]
53	1030	CC(C)(C)Sc1cccnc1-c1nc(C(F)(F)F)c(Oc2ccc(Cl)c(Cl)c2)c(=O)[nH]1 [Example 189]
0.7	300	CN(C)c1ccc(-c2nc(C(F)(F)F)c(Oc3ccc(Cl)c(C(F)(F)F)c3)c(=O)[nH]2)nn1 [Example 201]
62	2110	CC(C)(C)Sc1cccnc1-c1nc(C(F)(F)F)c(Oc2ccc(Cl)c(C(F)(F)F)c2)c(=O)[nH]1 [Example 190]
0.4	44	O=c1[nH]c(-c2ccon2)nc(C(F)(F)F)c1Oc1ccc(Cl)c(C(F)(F)F)c1 [Example 230]
103	679	C[S+]([O-])c1cccnc1-c1nc(C(F)(F)F)c(Oc2ccc(Cl)c(Cl)c2)c(=O)[nH]1 (centres unmarked) [Example 267, 5-(3,4-Dichlorophenoxy)-2-[3-(methylsulphinyl)pyridin-2-yl]-6-(trifluoromethyl)pyrimidin-4(3H)-one]
0.7	87	Nc1ccc(-c2nc(C(F)(F)F)c(Oc3ccc(Cl)c(C(F)(F)F)c3)c(=O)[nH]2)nn1 [Example 153, 2-(6-aminopyridazin-3-yl)-5-[4-chloro-3-(trifluoromethyl)phenoxy]-6-(trifluoromethyl)pyrimidin-4(3H)-one]
1.8	73	COc1conc1-c1nc(C(F)(F)F)c(Oc2ccc(Cl)c(Cl)c2)c(=O)[nH]1 [Example 179, 5-(3,4-dichlorophenoxy)-2-(4-methoxy-1,2-oxazol-3-yl)-6-(trifluoromethyl)pyrimidin-4(3H)-one]
